# Assay results from patent US20260317299A1, “PIKFYVE PROTEIN KINASE DEGRADATION AGENT AND USE THEREOF” (Shanghai Institute of Organic Chemistry, Chinese Academy of …, priority 2023, published 2026).
# Target: T1, PIKfyve (Homo sapiens, UniProt Q9Y2I7)
# T1 construct: endogenous in cells; host or cells: VCaP
# Experiment: Degradation of PIKfyve proteins in VCaP tumor cells (24 h, Western blot)
# Type: cell-based
# Settings: 37° C., compared with DMSO control, WB, read-out: DC50 (concentration that achieves 50% degradation activity)
# Experimental: Method: 200 μL of cells at a density of 5×10^6 cells/ml were inoculated into a 6-well plate, and then different concentrations of drugs were added. The cells were treated at 37° C. for 24 h. The […] was collected and washed with PBS twice. Then, 100-200 μL of 1×SDS lysate was added, and the cell lysate was collected into a centrifuge tube. The cells were disrupted ultrasonically for 10-20 sec, and boiled for 10 min. Protein samples were subjected to SDS-PAGE electrophoresis at a voltage of 90 V, transferred to PVDF membranes at 110 V, blocked with 5% BSA for 4 h, incubated with primary antibodies (PIKfyve, GAPDH) at 4° C. overnight, and incubated with secondary antibodies (anti-Rabbit IgG or anti-Mouse IgG) at room temperature. The membranes were washed with TBST buffer, developed with an ECL developing solution, and then imaged to obtain protein band signals, with single-concentration WB results as shown in FIG. 1. Compared with the DMSO control group, the concentration that achieves 50% degradation activity is defined as DC50.
# T1 sequence (Q9Y2I7 whole entry): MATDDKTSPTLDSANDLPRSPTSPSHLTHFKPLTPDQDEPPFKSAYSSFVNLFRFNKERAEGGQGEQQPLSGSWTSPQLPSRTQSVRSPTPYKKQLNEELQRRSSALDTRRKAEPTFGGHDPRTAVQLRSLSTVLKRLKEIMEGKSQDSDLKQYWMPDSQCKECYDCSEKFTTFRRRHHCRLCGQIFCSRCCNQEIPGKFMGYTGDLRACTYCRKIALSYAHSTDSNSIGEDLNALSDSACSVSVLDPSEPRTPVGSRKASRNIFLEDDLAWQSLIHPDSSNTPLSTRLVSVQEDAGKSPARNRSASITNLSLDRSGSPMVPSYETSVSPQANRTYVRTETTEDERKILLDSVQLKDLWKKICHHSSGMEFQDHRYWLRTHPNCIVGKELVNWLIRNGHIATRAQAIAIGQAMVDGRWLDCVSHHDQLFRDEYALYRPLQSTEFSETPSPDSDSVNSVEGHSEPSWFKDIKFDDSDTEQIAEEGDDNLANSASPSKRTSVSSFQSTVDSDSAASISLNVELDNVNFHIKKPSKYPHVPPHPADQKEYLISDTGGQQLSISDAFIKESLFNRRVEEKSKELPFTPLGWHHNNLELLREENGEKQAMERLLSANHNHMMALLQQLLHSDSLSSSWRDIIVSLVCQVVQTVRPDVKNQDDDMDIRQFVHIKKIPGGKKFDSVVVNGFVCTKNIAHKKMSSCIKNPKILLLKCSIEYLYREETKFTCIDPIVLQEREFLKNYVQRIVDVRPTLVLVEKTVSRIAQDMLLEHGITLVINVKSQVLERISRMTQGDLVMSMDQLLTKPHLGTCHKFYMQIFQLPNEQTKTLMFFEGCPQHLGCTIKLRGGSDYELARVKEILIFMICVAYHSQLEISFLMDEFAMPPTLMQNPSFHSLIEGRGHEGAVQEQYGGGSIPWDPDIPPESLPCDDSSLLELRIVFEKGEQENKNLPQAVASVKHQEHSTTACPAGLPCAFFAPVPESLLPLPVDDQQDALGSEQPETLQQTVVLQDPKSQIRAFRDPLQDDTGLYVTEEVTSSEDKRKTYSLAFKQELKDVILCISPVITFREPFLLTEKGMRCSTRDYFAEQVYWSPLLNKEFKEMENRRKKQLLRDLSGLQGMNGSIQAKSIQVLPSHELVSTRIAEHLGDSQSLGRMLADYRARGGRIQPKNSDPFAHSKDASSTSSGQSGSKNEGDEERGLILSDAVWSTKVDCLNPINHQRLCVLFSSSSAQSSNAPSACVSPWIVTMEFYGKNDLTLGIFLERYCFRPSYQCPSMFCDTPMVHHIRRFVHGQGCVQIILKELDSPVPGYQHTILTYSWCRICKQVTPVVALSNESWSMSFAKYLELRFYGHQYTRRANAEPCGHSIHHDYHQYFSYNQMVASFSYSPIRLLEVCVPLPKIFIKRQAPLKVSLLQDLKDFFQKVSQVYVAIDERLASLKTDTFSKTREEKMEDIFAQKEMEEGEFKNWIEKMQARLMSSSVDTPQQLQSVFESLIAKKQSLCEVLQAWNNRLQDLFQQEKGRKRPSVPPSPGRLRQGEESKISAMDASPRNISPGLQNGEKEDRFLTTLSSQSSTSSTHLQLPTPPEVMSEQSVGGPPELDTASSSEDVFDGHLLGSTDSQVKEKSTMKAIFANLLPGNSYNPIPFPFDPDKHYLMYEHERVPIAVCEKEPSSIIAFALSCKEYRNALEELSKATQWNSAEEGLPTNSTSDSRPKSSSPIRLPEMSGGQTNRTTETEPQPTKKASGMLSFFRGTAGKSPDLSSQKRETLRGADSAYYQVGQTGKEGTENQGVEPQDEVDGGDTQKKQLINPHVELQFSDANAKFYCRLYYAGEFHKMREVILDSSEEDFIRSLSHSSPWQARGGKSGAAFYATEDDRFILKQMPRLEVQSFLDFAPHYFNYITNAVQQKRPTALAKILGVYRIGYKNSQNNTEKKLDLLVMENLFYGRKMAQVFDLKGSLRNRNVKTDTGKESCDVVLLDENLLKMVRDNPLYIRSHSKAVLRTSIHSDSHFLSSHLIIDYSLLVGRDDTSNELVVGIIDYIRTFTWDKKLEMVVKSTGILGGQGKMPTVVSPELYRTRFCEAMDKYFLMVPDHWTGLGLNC
row,SMILES,DC50 [nM]
1,"Cc1cccc(/C=N/Nc2cc(N3CCOCC3)nc(OCCc3ccc(NC(=O)CCC(=O)N[C@H](C(=O)N4C[C@H](O)C[C@H]4C(=O)NCc4ccc(-c5scnc5C)cc4)C(C)(C)C)cc3)n2)c1 [Example 37, N^1—((S)-1-((2S,4R)-4-hydroxy-2-((4-(4-methylthiazol-5-yl)benzyl)carbamoyl)pyrrolidine-1-yl)-3,3-dimethyl-1-oxobutan-2-yl)-N^4-(4-(2-((4-(2-((E)-3-methylbenzylidene) hydrazino)-6-morpholinopyrimidin-2-yl)oxy)ethyl)phenyl)succinimide]",100 to 10000
2,Cc1cccc(/C=N/Nc2cc(N3CCOCC3)nc(OCCc3ccc(NC(=O)CCCCC(=O)N[C@H](C(=O)N4C[C@H](O)C[C@H]4C(=O)N[C@@H](C)c4ccc(-c5scnc5C)cc4)C(C)(C)C)cc3)n2)c1 [Example 46],1 to 100
3,Cc1cccc(/C=N/Nc2cc(N3CCOCC3)nc(OCCc3ccc(NC(=O)CCCCCC(=O)N[C@H](C(=O)N4C[C@H](O)C[C@H]4C(=O)N[C@@H](C)c4ccc(-c5scnc5C)cc4)C(C)(C)C)cc3)n2)c1 [Example 47],1 to 100
4,Cc1cccc(/C=N/Nc2cc(N3CCOCC3)nc(OCCc3ccc(NC(=O)CCCCCCCCC(=O)N[C@H](C(=O)N4C[C@H](O)C[C@H]4C(=O)N[C@@H](C)c4ccc(-c5scnc5C)cc4)C(C)(C)C)cc3)n2)c1 [Example 48],1 to 100
5,"Cc1cccc(/C=N/Nc2cc(N3CCOCC3)nc(OCCc3ccc(NC(=O)CC[C@H](NC(=O)[C@@H]4C[C@@H](O)CN4C(=O)[C@@H](NC(=O)C4(F)CC4)C(C)(C)C)c4ccc(-c5scnc5C)cc4)cc3)n2)c1 [Example 49, (2S,4R)-1-((S)-2-(1-fluorocyclopropane-1-carboxamido)-3,3-dimethylbutanoyl)-4-hydroxy-N—((S)-4-((4-(2-((4-(2-((E)-3-methylbenzylidene)hydrazino)-6-morpholinopyrimidin-2-yl)oxy)ethyl)phenyl)amino)-1-(4-(4-methylthiazol-5-yl)phenyl)4-oxobutyl)pyrrolidine-2-carboxamide]",1 to 100
6,"Cc1cccc(/C=N/Nc2cc(N3CCOCC3)nc(OCCc3ccc(NC(=O)CNC(=O)CC[C@H](NC(=O)[C@@H]4C[C@@H](O)CN4C(=O)[C@@H](NC(=O)C4(F)CC4)C(C)(C)C)c4ccc(-c5scnc5C)cc4)cc3)n2)c1 [Example 50, (2S,4R)-1-((S)-2-(1-fluorocyclopropane-1-carboxamido)-3,3-dimethylbutanoyl)-4-hydroxy-N—((S)-4-((2-((4-(2-((4-(2-((E)-3-methylbenzylidene)hydrazino)-6-morpholinopyrimidin-2-yl)oxy)ethyl)phenyl)amino)-2-oxoethyl)amino)-1-(4-(4-methylthiazol-5-yl)phenyl)4-oxobutyl)pyrrolidine-2-carboxamide]",1 to 100

# Results, then the compound that gave them:
row,DC50 [nM],SMILES
1,1 to 100,"Cc1cccc(/C=N/Nc2cc(N3CCOCC3)nc(OCCc3ccc(NC(=O)CCCCC(=O)N[C@H](C(=O)N4C[C@H](O)C[C@H]4C(=O)NCc4ccc(-c5scnc5C)cc4)C(C)(C)C)cc3)n2)c1 [Example 38, N^1—((S)-1-((2S,4R)-4-hydroxy-2-((4-(4-methylthiazol-5-yl)benzyl)carbamoyl)pyrrolidine-1-yl)-3,3-dimethyl-1-oxobutan-2-yl)-N^6-(4-(2-((4-(2-((E)-3-methylbenzylidene) hydrazino)-6-morpholinopyrimidin-2-yl)oxy)ethyl)phenyl)adipamide]"
2,1 to 100,"Cc1cccc(/C=N/Nc2cc(N3CCOCC3)nc(OCCc3ccc(NC(=O)CCCCCCC(=O)N[C@H](C(=O)N4C[C@H](O)C[C@H]4C(=O)NCc4ccc(-c5scnc5C)cc4)C(C)(C)C)cc3)n2)c1 [Example 39, N^1—((S)-1-((2S,4R)-4-hydroxy-2-((4-(4-methylthiazol-5-yl)benzyl)carbamoyl)pyrrolidine-1-yl)-3,3-dimethyl-1-oxobutan-2-yl)-N^8-(4-(2-((4-(2-((E)-3-methylbenzylidene) hydrazino)-6-morpholinopyrimidin-2-yl)oxy)ethyl)phenyl)octanediamide]"
3,1 to 100,"Cc1cccc(/C=N/Nc2cc(N3CCOCC3)nc(OCCc3ccc(NC(=O)CCCCCCCCC(=O)N[C@H](C(=O)N4C[C@H](O)C[C@H]4C(=O)NCc4ccc(-c5scnc5C)cc4)C(C)(C)C)cc3)n2)c1 [Example 40, N^1—((S)-1-((2S,4R)-4-hydroxy-2-((4-(4-methylthiazol-5-yl)benzyl)carbamoyl)pyrrolidine-1-yl)-3,3-dimethyl-1-oxobutan-2-yl)-N^10-(4-(2-((4-(2-((E)-3-methylbenzylidene) hydrazino)-6-morpholinopyrimidin-2-yl)oxy)ethyl)phenyl)decanediamide]"
4,1 to 100,"Cc1cccc(/C=N/Nc2cc(N3CCOCC3)nc(OCCc3ccc(NC(=O)CCCC(=O)N[C@H](C(=O)N4C[C@H](O)C[C@H]4C(=O)NCc4ccc(-c5scnc5C)cc4)C(C)(C)C)cc3)n2)c1 [Example 41, N^1—((S)-1-((2S,4R)-4-hydroxy-2-((4-(4-methylthiazol-5-yl)benzyl)carbamoyl)pyrrolidine-1-yl)-3,3-dimethyl-1-oxobutan-2-yl)-N^5-(4-(2-((4-(2-((E)-3-methylbenzylidene) hydrazino)-6-morpholinopyrimidin-2-yl)oxy)ethyl)phenyl)glutaramide]"
5,1 to 100,"Cc1cccc(/C=N/Nc2cc(N3CCOCC3)nc(OCCc3ccc(NC(=O)CCCCCC(=O)N[C@H](C(=O)N4C[C@H](O)C[C@H]4C(=O)NCc4ccc(-c5scnc5C)cc4)C(C)(C)C)cc3)n2)c1 [Example 42, N^1—((S)-1-((2S,4R)-4-hydroxy-2-((4-(4-methylthiazol-5-yl)benzyl)carbamoyl)pyrrolidine-1-yl)-3,3-dimethyl-1-oxobutan-2-yl)-N^7-(4-(2-((4-(2-((E)-3-methylbenzylidene) hydrazino)-6-morpholinopyrimidin-2-yl)oxy)ethyl)phenyl)heptanediamide]"
6,1 to 100,"Cc1cccc(/C=N/Nc2cc(N3CCOCC3)nc(OCCc3ccc(NC(=O)CCCCCCCC(=O)N[C@H](C(=O)N4C[C@H](O)C[C@H]4C(=O)NCc4ccc(-c5scnc5C)cc4)C(C)(C)C)cc3)n2)c1 [Example 43, N^1—((S)-1-((2S,4R)-4-hydroxy-2-((4-(4-methylthiazol-5-yl)benzyl)carbamoyl)pyrrolidine-1-yl)-3,3-dimethyl-1-oxobutan-2-yl)-N^9-(4-(2-((4-(2-((E)-3-methylbenzylidene) hydrazino)-6-morpholinopyrimidin-2-yl)oxy)ethyl)phenyl)nonediamide]"
7,1 to 100,"Cc1cccc(/C=N/Nc2cc(N3CCOCC3)nc(OCCc3ccc(NC(=O)CCCCCCCCCC(=O)N[C@H](C(=O)N4C[C@H](O)C[C@H]4C(=O)NCc4ccc(-c5scnc5C)cc4)C(C)(C)C)cc3)n2)c1 [Example 44, N^1—((S)-1-((2S,4R)-4-hydroxy-2-((4-(4-methylthiazol-5-yl)benzyl)carbamoyl)pyrrolidine-1-yl)-3,3-dimethyl-1-oxobutan-2-yl)-N^11-(4-(2-((4-(2-((E)-3-methylbenzylidene) hydrazino)-6-morpholinopyrimidin-2-yl)oxy)ethyl)phenyl)undecanediamide]"
8,1 to 100,Cc1cccc(/C=N/Nc2cc(N3CCOCC3)nc(OCCc3ccc(NC(=O)CCCC(=O)N[C@H](C(=O)N4C[C@H](O)C[C@H]4C(=O)N[C@@H](C)c4ccc(-c5scnc5C)cc4)C(C)(C)C)cc3)n2)c1 [Example 45]
